# Results from ChEMBL document CHEMBL1140418, “Synthesis of (2R,3S) 3-amino-4-mercapto-2-butanol, a threonine analogue for covalent inhibition of sortases” (Bioorg Med Chem Lett, 2005).
# Active and inactive are the calls of the source. The calls are words filed in the database; no cut-off is given here.
# What was measured:
# [1] = target: T1, Sortase B (Staphylococcus aureus) (UniProt Q2FZE3); experiment: Inhibitory activity against Sortase B
# T1 sequence (whole entry): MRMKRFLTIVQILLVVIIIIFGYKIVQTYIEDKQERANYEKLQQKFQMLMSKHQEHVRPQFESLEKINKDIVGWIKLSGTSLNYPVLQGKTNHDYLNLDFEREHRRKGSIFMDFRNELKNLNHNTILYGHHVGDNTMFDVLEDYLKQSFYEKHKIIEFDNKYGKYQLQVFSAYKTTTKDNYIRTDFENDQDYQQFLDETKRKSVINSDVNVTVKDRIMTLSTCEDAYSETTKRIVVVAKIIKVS
# [2] = target: T2, Sortase A (Staphylococcus aureus) (UniProt Q9S446); experiment: Inhibitory activity against Sortase A
# T2 sequence (whole entry): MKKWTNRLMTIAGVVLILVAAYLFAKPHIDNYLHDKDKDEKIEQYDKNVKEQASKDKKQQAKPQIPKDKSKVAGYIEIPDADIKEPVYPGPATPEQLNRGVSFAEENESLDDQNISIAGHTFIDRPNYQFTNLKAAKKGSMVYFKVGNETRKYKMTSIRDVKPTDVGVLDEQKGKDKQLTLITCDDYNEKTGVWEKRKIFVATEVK
Compound,Activity [1],Activity [2]
C[C@@H](O)[C@@H](CS)NC(=O)[C@H](CCC(N)=O)NC(=O)[C@@H]1CCCN1C(=O)[C@H](CC(N)=O)NC(=O)OCc1ccccc1,Active,–
CC(C)C[C@H](NC(=O)OCc1ccccc1)C(=O)N1CCC[C@H]1C(=O)N[C@@H](C)C(=O)N[C@H](CS)[C@@H](C)O,–,Active
